According to ChEMBL document CHEMBL1201862, “PubChem BioAssay data set” (2004):
Calls of active or inactive are those of the source.

Experiments:
[1] = THP-1 cell cytotoxicity, cytotoxicity control, set 4 (AID 504911); format: functional; conditions: Mycobacterium tuberculosis
[2] = tested on: Streptococcus sp. 'group A'; assay: Streptococcus pyogenes SK(-)GAS viability under kanamycin – luminescence, BacTiterGlo, confirmation, counter-screen for streptokinase expression inhibitor project, dose response (AID 1900); format: functional, organism-based
[3] = Vero cell cytotoxicity, dose response, cytotoxicity control for M. tuberculosis growth inhibitor project, Vero cells, purified and synthesized compounds, set 5 (AID 504909); format: functional; conditions: Mycobacterium tuberculosis
INS1 = assay: INS-1E survival protection against cytokine death – cell-based, luminescence, retest, dose response (AID 449756); format: functional; conditions: Rattus norvegicus;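 further: cell death triggered by IL-1 beta plus TNF-alpha plus IFN-gamma mixture; protective hits raise ATP signal compared with cytokine alone wells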
Streptococcus = assay: GAS UMAA2166 growth inhibition – luminescence, BacTiterGlo, counter-screen for streptokinase expression inhibitor project, dose response (AID 1915); format: functional, organism-based;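 further: potency for reduction of bacterial viability or growth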
Streptokinase A = target: T1, Streptokinase A (Streptococcus pyogenes serotype M1, UniProt P10520); assay: viability-normalized secreted streptokinase activity reduction – plasminogen activation absorbance, OD405, dose response (AID 1914); format: functional, Streptococcus pyogenes M1 GAS;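 further: secreted streptokinase activity via plasminogen activation per viability signal from cell pellet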
T1 sequence (P10520 whole entry): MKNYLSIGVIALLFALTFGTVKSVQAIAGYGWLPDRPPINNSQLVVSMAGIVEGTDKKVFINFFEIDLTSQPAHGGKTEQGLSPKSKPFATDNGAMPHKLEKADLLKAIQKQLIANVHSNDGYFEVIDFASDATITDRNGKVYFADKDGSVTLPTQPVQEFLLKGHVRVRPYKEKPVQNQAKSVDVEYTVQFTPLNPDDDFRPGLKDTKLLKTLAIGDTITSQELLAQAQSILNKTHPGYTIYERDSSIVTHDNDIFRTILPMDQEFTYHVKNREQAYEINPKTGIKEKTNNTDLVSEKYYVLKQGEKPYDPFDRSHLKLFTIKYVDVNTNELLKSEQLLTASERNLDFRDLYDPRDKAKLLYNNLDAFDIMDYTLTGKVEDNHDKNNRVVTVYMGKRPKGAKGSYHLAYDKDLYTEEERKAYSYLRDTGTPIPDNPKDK

[4] = HepG2 cell cytotoxicity, cytotoxicity control, set 4 (AID 504910); format: functional; conditions: Mycobacterium tuberculosis
[5] = SAR analysis of small molecule activators of Apaf-1 using a LZ-Caspase-9/Caspase-3 Fluorescent Selectivity assay - Set 2.; format: functional; conditions: read-out: EC50_Mean
[6] = target: T2, Apoptotic protease-activating factor 1 (Homo sapiens, UniProt O14727); assay: SAR analysis of small molecule Activators of Apaf-1 in a Fluorescent assay - set 2.; format: functional; conditions: read-out: EC50_Mean
T2 sequence (O14727 whole entry): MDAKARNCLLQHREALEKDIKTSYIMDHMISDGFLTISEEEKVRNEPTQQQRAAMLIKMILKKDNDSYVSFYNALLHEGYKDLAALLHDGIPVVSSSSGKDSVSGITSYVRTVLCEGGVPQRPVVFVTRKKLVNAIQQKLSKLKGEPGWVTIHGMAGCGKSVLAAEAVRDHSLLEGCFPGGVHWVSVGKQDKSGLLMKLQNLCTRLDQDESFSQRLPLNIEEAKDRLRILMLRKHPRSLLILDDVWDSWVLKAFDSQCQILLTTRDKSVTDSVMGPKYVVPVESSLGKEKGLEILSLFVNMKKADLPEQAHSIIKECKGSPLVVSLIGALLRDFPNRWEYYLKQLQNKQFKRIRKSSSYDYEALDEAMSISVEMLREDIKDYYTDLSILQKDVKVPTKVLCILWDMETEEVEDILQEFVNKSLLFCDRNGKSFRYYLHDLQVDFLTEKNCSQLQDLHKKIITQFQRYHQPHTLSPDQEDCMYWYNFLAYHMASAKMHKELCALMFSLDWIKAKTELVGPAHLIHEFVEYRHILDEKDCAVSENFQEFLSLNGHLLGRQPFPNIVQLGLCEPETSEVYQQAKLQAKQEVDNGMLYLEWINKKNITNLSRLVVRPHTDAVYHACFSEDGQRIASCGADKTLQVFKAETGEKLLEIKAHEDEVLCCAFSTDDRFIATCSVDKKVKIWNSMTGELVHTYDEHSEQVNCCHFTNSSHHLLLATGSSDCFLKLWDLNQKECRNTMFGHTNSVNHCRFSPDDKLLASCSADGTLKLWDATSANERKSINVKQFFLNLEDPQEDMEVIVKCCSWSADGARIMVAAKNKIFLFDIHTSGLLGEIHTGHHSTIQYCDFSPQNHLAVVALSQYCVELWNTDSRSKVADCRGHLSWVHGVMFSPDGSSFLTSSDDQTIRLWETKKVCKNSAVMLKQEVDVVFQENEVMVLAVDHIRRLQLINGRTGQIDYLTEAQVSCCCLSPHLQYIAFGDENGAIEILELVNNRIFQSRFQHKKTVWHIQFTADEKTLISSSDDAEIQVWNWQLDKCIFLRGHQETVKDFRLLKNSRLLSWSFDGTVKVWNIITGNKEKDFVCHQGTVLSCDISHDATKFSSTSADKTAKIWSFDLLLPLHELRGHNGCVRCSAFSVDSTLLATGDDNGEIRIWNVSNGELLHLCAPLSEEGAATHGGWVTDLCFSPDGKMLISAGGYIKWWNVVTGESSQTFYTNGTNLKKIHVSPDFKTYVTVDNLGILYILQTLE

[7] = target: Glycogen synthase kinase-3 alpha (Homo sapiens, UniProt P49840); format: functional;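 further: GSK3A result taken from a broad kinome-wide kinase panel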
[8] = target: Proto-oncogene tyrosine-protein kinase receptor Ret (Homo sapiens, UniProt P07949); format: functional;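 further: measured within a kinome-wide profiling panel, RET as the panel member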
[9] = target: Tyrosine-protein kinase Lck (Homo sapiens, UniProt P06239); format: functional;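 further: lck was assayed as one member of a kinase panel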
[10] = target: Serine/threonine-protein kinase pim-1 (Homo sapiens, UniProt P11309); format: functional
[11] = target: Platelet-derived growth factor receptor alpha (Homo sapiens, UniProt P16234); assay: Navigating the Kinome. Panel member name: PDGFRA; format: functional
[12] = target: Tyrosine-protein kinase ABL1 (Homo sapiens, UniProt P00519); format: functional
Tyrosine-protein kinase ABL1, sequence (P00519 whole entry): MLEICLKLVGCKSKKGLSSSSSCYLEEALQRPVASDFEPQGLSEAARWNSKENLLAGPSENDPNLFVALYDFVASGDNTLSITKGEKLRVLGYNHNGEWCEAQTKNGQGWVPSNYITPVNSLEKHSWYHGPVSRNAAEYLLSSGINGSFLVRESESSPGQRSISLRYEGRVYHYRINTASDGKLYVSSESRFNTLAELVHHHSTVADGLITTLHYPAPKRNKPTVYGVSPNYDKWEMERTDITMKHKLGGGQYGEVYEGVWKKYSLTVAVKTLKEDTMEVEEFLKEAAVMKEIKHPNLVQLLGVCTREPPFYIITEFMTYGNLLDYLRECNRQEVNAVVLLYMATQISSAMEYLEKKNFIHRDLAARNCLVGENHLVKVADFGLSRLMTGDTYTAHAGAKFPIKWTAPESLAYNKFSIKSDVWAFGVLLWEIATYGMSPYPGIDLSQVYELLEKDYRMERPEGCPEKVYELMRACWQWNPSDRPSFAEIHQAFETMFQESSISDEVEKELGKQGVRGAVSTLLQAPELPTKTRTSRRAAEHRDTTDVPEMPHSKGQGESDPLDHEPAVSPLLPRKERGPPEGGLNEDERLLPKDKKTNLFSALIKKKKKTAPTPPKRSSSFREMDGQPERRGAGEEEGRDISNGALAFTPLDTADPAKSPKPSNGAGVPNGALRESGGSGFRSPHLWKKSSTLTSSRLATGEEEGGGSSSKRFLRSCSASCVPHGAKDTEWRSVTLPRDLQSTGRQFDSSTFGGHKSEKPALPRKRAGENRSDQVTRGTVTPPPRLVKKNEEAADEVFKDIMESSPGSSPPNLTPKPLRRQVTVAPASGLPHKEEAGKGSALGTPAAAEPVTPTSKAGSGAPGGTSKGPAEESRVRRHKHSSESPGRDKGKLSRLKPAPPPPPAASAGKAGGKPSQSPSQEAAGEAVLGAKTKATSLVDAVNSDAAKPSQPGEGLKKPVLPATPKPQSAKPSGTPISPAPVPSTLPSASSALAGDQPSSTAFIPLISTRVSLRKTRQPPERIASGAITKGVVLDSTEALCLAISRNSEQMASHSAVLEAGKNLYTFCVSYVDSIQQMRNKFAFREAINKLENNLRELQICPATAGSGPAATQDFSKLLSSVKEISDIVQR

[13] = target: Leucine-rich repeat serine/threonine-protein kinase 2 (Homo sapiens, UniProt Q5S007); format: functional;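 further: value from a broad kinome-wide panel profiling study in which LRRK2 was one of the kinases tested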
Activin receptor type-1 = Activin receptor type-1 (Homo sapiens, UniProt Q04771); assay: Navigating the Kinome. Panel member name: ACVR1; format: functional
[14] = target: Cyclin-dependent kinase 5 (Homo sapiens, UniProt Q00535); format: functional;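 further: CDK5 measured as one member of a kinase profiling panel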
[15] = target: Tyrosine-protein kinase JAK2 (Homo sapiens, UniProt O60674); format: functional;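 further: JAK2 tested as one member of a kinase panel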
[16] = target: Tyrosine-protein kinase receptor TYRO3 (Homo sapiens, UniProt Q06418); format: functional;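 further: TYRO3 value obtained as one member of a kinome-wide profiling panel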
[17] = target: Macrophage colony-stimulating factor 1 receptor (Homo sapiens, UniProt P07333); format: functional;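 further: value comes from the Navigating the Kinome screening panel, CSF1R member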
LIM domain kinase 1 = LIM domain kinase 1 (Homo sapiens, UniProt P53667); assay: Navigating the Kinome. Panel member name: LIMK1; format: functional
[18] = target: Serine/threonine-protein kinase TBK1 (Homo sapiens, UniProt Q9UHD2); assay: Navigating the Kinome. Panel member name: TBK1; format: functional
[19] = target: Cyclin-dependent kinase 9 (Homo sapiens, UniProt P50750); format: functional;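 further: value from the CDK9 entry of a kinome-spanning kinase panel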
Cyclin-dependent kinase 9, sequence (P50750 whole entry): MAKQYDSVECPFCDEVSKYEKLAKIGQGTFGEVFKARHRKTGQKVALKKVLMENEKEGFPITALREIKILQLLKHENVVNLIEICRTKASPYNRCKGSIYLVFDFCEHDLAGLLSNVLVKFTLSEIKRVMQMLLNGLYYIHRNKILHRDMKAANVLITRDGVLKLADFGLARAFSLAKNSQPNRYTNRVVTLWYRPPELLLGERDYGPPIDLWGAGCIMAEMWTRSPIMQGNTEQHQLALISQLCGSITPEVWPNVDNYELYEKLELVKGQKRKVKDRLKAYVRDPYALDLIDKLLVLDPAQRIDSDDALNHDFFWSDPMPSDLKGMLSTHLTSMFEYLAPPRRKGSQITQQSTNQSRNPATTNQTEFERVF

[20] = target: Dual specificity protein kinase CLK2 (Homo sapiens, UniProt P49760); format: functional
[21] = target: Dual specificity tyrosine-phosphorylation-regulated kinase 1B (Homo sapiens, UniProt Q9Y463); assay: Navigating the Kinome. Panel member name: DYRK1B; format: functional
[22] = target: Dual specificity protein kinase CLK4 (Homo sapiens, UniProt Q9HAZ1); format: functional
Dual specificity protein kinase CLK4, sequence (Q9HAZ1 whole entry): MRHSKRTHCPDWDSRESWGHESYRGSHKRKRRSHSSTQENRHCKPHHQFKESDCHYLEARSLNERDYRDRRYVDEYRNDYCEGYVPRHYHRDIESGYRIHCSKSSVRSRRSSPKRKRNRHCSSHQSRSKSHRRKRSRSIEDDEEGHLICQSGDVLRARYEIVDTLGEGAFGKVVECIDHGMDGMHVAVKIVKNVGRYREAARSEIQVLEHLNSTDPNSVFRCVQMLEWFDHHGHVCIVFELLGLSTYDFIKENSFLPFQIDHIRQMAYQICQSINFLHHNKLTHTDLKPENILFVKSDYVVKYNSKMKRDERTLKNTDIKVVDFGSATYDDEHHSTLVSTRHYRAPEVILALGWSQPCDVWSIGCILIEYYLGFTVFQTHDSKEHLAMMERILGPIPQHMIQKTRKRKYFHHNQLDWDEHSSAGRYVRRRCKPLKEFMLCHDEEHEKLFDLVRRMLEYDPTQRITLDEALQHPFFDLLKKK

[23] = target: Mitogen-activated protein kinase kinase kinase kinase 2 (Homo sapiens, UniProt Q12851); format: functional;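 further: measured as one member of a kinome-wide kinase panel, with MAP4K2 as the panel entry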
[24] = target: Glycogen synthase kinase-3 beta (Homo sapiens, UniProt P49841); format: functional;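 further: value comes from a broad kinome profiling panel, with GSK3B as the panel member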
[25] = target: ALK tyrosine kinase receptor (Homo sapiens, UniProt Q9UM73); format: functional;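 further: ALK tested as one member of a kinase panel screen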
[26] = target: Rho-associated protein kinase 1 (Homo sapiens, UniProt Q13464); format: functional;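 further: measured within a broad kinome-wide panel profiling many kinases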
[27] = target: Insulin-like growth factor 1 receptor (Homo sapiens, UniProt P08069); assay: Navigating the Kinome. Panel member name: IGF1R; format: functional
[28] = target: Vascular endothelial growth factor receptor 2 (Homo sapiens, UniProt P35968); format: functional
[29] = target: Death-associated protein kinase 3 (Homo sapiens, UniProt O43293); format: functional;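 further: measured as one member of a kinome-wide profiling panel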
[30] = target: Casein kinase I isoform alpha (Homo sapiens, UniProt P48729); format: functional
[31] = target: Cyclin-dependent kinase 8 (Homo sapiens, UniProt P49336); assay: Navigating the Kinome. Panel member name: CDK8; format: functional
[32] = target: Vascular endothelial growth factor receptor 1 (Homo sapiens, UniProt P17948); format: functional;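 further: measured within a kinome-wide profiling panel, FLT1 as the panel member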
[33] = target: Fibroblast growth factor receptor 1 (Homo sapiens, UniProt P11362); format: functional
Fibroblast growth factor receptor 1, sequence (P11362 whole entry): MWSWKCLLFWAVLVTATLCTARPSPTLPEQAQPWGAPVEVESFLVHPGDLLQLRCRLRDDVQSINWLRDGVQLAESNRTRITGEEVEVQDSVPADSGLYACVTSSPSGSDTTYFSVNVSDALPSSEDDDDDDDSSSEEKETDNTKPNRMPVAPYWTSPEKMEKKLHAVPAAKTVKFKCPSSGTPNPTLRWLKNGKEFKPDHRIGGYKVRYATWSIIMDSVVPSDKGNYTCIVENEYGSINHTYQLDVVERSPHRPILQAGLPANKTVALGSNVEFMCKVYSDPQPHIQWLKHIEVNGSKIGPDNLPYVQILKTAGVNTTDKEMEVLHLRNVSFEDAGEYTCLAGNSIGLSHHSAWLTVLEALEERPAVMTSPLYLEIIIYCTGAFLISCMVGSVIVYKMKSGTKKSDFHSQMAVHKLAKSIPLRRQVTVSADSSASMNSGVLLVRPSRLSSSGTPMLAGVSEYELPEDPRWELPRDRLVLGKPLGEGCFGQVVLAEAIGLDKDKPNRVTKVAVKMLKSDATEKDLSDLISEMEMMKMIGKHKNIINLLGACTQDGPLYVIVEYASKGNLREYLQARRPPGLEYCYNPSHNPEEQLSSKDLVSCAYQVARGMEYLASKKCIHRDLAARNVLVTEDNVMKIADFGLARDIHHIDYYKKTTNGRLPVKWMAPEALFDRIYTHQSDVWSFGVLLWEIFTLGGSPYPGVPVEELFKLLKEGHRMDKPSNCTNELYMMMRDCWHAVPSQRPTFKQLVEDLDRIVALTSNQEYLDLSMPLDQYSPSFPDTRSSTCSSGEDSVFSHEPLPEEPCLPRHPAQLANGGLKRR

[34] = target: cAMP-dependent protein kinase catalytic subunit alpha (Homo sapiens, UniProt P17612); format: functional
[35] = target: Macrophage-stimulating protein receptor (Homo sapiens, UniProt Q04912); assay: Navigating the Kinome. Panel member name: MST1R; format: functional
Aurora kinase A = Aurora kinase A (Homo sapiens, UniProt O14965); format: functional;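 further: value from the Navigating the Kinome kinase panel profiling, panel entry STK6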
[36] = target: Dual specificity tyrosine-phosphorylation-regulated kinase 1A (Homo sapiens, UniProt Q13627); format: functional;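 further: measured against DYRK1A as one member of a broad kinome profiling panel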
[37] = target: Protein kinase C theta type (Homo sapiens, UniProt Q04759); assay: Navigating the Kinome. Panel member name: PRKCQ; format: functional
[38] = target: Cyclin-dependent kinase 7 (Homo sapiens, UniProt P50613); format: functional;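 further: value comes from a kinome-wide kinase profiling panel in which CDK7 is one member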
Cyclin-dependent kinase 7, sequence (P50613 whole entry): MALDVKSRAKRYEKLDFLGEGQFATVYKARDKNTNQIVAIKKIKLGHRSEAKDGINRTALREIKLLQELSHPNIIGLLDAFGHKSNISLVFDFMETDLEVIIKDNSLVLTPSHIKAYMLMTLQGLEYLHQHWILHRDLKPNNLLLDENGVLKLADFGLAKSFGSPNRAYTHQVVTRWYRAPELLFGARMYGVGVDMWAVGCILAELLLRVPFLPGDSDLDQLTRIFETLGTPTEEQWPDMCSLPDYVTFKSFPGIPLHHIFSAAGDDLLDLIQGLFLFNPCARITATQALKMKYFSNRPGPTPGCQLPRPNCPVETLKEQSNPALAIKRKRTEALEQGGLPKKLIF

[39] = target: Mitogen-activated protein kinase 8 (Homo sapiens, UniProt P45983); format: functional;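 further: value comes from one member of a kinome-wide kinase profiling panel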
[40] = target: Dual specificity mitogen-activated protein kinase kinase 2 (Homo sapiens, UniProt P36507); assay: Navigating the Kinome. Panel member name: MAP2K2; format: functional
[41] = target: Serine/threonine-protein kinase Chk1 (Homo sapiens, UniProt O14757); format: functional;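 further: measured as one member of a kinome-wide kinase profiling panel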
[42] = target: Leukocyte tyrosine kinase receptor (Homo sapiens, UniProt P29376); assay: Navigating the Kinome. Panel member name: LTK; format: functional
[43] = target: Dual specificity mitogen-activated protein kinase kinase 1 (Homo sapiens, UniProt Q02750); assay: Navigating the Kinome. Panel member name: MAP2K1; format: functional
[44] = target: Serine/threonine-protein kinase D3 (Homo sapiens, UniProt O94806); format: functional;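 further: determined within a kinase panel screen, with PRKCN as the panel member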
[45] = target: Tyrosine-protein kinase JAK3 (Homo sapiens, UniProt P52333); format: functional
[46] = target: Serine/threonine-protein kinase TAO1 (Homo sapiens, UniProt Q7L7X3); format: functional
Focal adhesion kinase 1 = Focal adhesion kinase 1 (Homo sapiens, UniProt Q05397); format: functional;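 further: measured as one member of a kinome panel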
[47] = target: Mitogen-activated protein kinase kinase kinase kinase 4 (Homo sapiens, UniProt O95819); format: functional
[48] = target: cAMP-dependent protein kinase catalytic subunit PRKX (Homo sapiens, UniProt P51817); format: functional
[49] = target: BDNF/NT-3 growth factors receptor (Homo sapiens, UniProt Q16620); format: functional;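 further: NTRK2 measured as one member of a broad kinome-wide kinase profiling panel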
[50] = target: Inhibitor of nuclear factor kappa-B kinase subunit epsilon (Homo sapiens, UniProt Q14164); assay: Navigating the Kinome. Panel member name: IKBKE; format: functional
Inhibitor of nuclear factor kappa-B kinase subunit epsilon, sequence (Q14164 whole entry): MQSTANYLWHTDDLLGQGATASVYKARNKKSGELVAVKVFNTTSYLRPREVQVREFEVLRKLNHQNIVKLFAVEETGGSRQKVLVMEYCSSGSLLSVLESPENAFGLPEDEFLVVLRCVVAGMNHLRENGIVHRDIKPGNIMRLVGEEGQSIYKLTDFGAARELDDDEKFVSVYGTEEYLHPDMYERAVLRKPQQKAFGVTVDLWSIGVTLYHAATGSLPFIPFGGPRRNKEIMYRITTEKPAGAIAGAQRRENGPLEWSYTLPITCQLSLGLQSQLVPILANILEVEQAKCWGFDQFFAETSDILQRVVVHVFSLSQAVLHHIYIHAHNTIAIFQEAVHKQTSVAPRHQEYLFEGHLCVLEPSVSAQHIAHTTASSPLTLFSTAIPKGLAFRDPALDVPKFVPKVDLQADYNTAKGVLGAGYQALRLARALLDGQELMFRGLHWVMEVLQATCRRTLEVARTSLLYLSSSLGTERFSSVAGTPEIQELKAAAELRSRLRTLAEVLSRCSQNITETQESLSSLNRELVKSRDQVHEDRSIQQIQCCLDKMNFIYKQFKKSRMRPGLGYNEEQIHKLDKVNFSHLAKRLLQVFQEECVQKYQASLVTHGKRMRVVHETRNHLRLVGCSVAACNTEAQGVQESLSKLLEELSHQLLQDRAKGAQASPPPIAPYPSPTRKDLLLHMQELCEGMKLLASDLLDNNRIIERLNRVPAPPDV

Activated CDC42 kinase 1 = Activated CDC42 kinase 1 (Homo sapiens, UniProt Q07912); assay: Navigating the Kinome. Panel member name: ACK1; format: functional
[51] = target: Mitogen-activated protein kinase 9 (Homo sapiens, UniProt P45984); format: functional;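 further: value from a kinome panel profiling assay, MAPK9 panel entry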
Mitogen-activated protein kinase 9, sequence (P45984 whole entry): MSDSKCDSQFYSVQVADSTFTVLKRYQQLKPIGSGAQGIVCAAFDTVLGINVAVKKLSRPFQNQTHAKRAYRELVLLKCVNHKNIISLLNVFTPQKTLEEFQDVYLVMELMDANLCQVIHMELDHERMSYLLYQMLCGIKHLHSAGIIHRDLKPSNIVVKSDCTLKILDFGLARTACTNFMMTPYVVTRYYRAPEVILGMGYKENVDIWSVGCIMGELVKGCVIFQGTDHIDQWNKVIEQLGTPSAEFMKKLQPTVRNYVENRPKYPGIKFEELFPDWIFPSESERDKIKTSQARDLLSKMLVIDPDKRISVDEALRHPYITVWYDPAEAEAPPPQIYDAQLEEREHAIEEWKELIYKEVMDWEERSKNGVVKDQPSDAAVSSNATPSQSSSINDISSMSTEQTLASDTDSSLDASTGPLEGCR

[52] = target: Calcium/calmodulin-dependent protein kinase type II subunit alpha (Homo sapiens, UniProt Q9UQM7); assay: Navigating the Kinome. Panel member name: CAMK2A; format: functional
Aurora kinase B = Aurora kinase B (Homo sapiens, UniProt Q96GD4); format: functional
[53] = target: Tyrosine-protein kinase Fyn (Homo sapiens, UniProt P06241); format: functional
[54] = target: 5'-AMP-activated protein kinase catalytic subunit alpha-1 (Homo sapiens, UniProt Q13131); format: functional
5'-AMP-activated protein kinase catalytic subunit alpha-1, sequence (Q13131 whole entry): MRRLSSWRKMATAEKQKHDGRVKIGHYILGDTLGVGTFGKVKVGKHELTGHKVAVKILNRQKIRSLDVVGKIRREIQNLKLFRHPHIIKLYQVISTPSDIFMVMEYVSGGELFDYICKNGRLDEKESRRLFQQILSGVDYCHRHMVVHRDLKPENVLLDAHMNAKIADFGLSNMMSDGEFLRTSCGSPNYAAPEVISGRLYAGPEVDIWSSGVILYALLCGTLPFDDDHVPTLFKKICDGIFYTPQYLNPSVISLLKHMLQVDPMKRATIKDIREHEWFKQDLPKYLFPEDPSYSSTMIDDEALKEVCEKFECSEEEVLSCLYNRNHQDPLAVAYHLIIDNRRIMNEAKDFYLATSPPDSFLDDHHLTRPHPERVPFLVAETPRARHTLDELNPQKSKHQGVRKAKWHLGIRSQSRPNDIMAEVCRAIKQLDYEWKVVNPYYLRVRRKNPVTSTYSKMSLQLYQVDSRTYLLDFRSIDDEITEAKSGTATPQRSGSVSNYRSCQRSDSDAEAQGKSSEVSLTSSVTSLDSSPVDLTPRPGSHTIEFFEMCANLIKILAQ

[55] = target: Serine/threonine-protein kinase PAK 4 (Homo sapiens, UniProt O96013); format: functional;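 further: value obtained within a kinome profiling panel in which PAK4 was one of the panel members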

## CC(C)/N=c1\cc2n(-c3ccc(Cl)cc3)c3ccccc3nc-2cc1Nc1ccc(Cl)cc1 [CLOFAZIMINE]
[1]
  CC50: 2.2 µM (active)
[2]
  EC50: 1.86 µM (active)
[3]
  CC50: 10.2 µM (active)
INS1
  AC50: 2.06 µM (active)
Streptococcus
  EC50: 36.9 µM (active)
Streptokinase A
  EC50: 2.28 µM (active)
[4]
  CC50: 4.7 µM (active)

## O=C(O)C1(Cn2cccn2)CC1
[5]
  EC50: > 100 µM (inactive)
[6]
  EC50: > 100 µM (inactive)

## Cc1n[nH]c2ccc(-c3cccnc3)cc12
[7]
  Ki: 3.98 µM (active)
[8]
  Ki: 39.8 µM (active)
[9]
  Ki: 63.1 µM (active)
[10]
  Ki: 7.94 µM (active)
[11]
  Ki: 31.6 µM (active)
[12]
  Ki: 25.1 µM (active)
[13]
  Ki: 0.398 µM (active)
Activin receptor type-1
  Ki: 3.98 µM (active)
[14]
  Ki: 0.126 µM (active)
[15]
  Ki: 7.94 µM (active)
[16]
  Ki: 79.4 µM (active)
[17]
  Ki: 31.6 µM (active)
LIM domain kinase 1
  Ki: 79.4 µM (active)
[18]
  Ki: 39.8 µM (active)
[19]
  Ki: 0.794 µM (active)
[20]
  Ki: 0.0631 µM (active)
[21]
  Ki: 0.0126 µM (active)
[22]
  Ki: 0.002 µM (active)
[23]
  Ki: 3.98 µM (active)
[24]
  Ki: 3.98 µM (active)
[25]
  Ki: 12.6 µM (active)
[26]
  Ki: 0.251 µM (active)
[27]
  Ki: 39.8 µM (active)
[28]
  Ki: 6.31 µM (active)
[29]
  Ki: 2 µM (active)
[30]
  Ki: 7.94 µM (active)
[31]
  Ki: 0.0251 µM (active)
[32]
  Ki: 31.6 µM (active)
[33]
  Ki: 50.1 µM (active)
[34]
  Ki: 2.51 µM (active)
[35]
  Ki: 12.6 µM (active)
Aurora kinase A
  Ki: 15.8 µM (active)
[36]
  Ki: 0.0398 µM (active)
[37]
  Ki: 0.126 µM (active)
[38]
  Ki: 7.94 µM (active)
[39]
  Ki: 5.01 µM (active)
[40]
  Ki: 10 µM (active)
[41]
  Ki: 63.1 µM (active)
[42]
  Ki: 3.16 µM (active)
[43]
  Ki: 10 µM (active)
[44]
  Ki: 2.51 µM (active)
[45]
  Ki: 63.1 µM (active)
[46]
  Ki: 50.1 µM (active)
Focal adhesion kinase 1
  Ki: 25.1 µM (active)
[47]
  Ki: 2.51 µM (active)
[48]
  Ki: 6.31 µM (active)
[49]
  Ki: 79.4 µM (active)
[50]
  Ki: 20 µM (active)
Activated CDC42 kinase 1
  Ki: 50.1 µM (active)
[51]
  Ki: 20 µM (active)
[52]
  Ki: 12.6 µM (active)
Aurora kinase B
  Ki: 10 µM (active)
[53]
  Ki: 79.4 µM (active)
[54]
  Ki: 20 µM (active)
[55]
  Ki: 79.4 µM (active)
